Consider 8 molecules from patent publication US20150258108A1 (priority 2014, published 2015).

Series [1] concerns the target T1, human OPRM (μ-opioid receptor) (Homo sapiens, UniProt P35372). To be noted: cited from earlier work.
Series [2] deals with human OPRK (κ-opioid receptor). Description: biochemical. It counts as binding.
In series [3] the target is T2, human OPRM (Homo sapiens, UniProt P35372). Also on record: expressed in transfected cells; host or cells: CHO-K1 (cell lines provided by Dr. Toll, Torrey Pines Institute). The settings on record: cited from earlier work.
In series [4] the target is T3, human OPRK (κ-opioid receptor) (Homo sapiens, UniProt P41145).
T3 construct: purchased PerkinElmer Life Sciences (Boston, Mass.)
Description: biochemical. Format: binding. To be noted: for Ki: read-out: Ki.

A further series deals with calf OPRK (Bos taurus, UniProt Q2KIP6). The settings on record: calf receptor, literature; cited from earlier work.
Series [5] addresses T4, OPRK (Homo sapiens, UniProt P41145). Description: biochemical. The arrangement: purchased PerkinElmer Life Sciences (Boston, Mass.).
Another series has as its target calf OPRM (Bos taurus, UniProt P79350). The settings on record: calf receptor, literature, cited from earlier work.
In series [6] the target is T2, human OPRM. Put plainly: biochemical. Format: biochemical. Also on record: expressed in transfected cells; host or cells: CHO-K1 (cell lines provided by Dr. Toll, Torrey Pines Institute).
Series [7] addresses T1, human OPRM (μ-opioid receptor). Put plainly: biochemical. It counts as binding. Also on record: expressed in transfected cells; host or cells: CHO-K1 (cell lines provided by Dr. Toll, Torrey Pines Institute).
Series [8] has as its target OPRD: opioid receptor delta (Bos taurus, UniProt F1N083). The settings on record: literature (Pearl, Herrick-Davis et al. 1995); cited from earlier work.
Series [9] has as its target T4, OPRK. Put plainly: cell-based. Also on record: host or cells: CHO-K1. The settings on record: OPRK, inhibitory component; pKi-pKe.
Series [10] can be described thus: Ascending single-dose pharmacokinetics of noribogaine in healthy volunteers. To be noted: for Cmax / Tmax / AUC0-216 / AUC0-∞ / t1/2: fasted healthy males, mean (SD), n = 6.
The target in series [11] is T2, human OPRM. Description: cell-based. It counts as cell-based. The arrangement: host or cells: CHO-K1.
[12] abbreviates: OPRK, [3H]-U69,593 binding, This work.
Setting [13] is: 30 mg noribogaine single oral dose.
The mark [14] stands for this setting: 30 mg noribogaine single oral dose, plasma.
Where [15] appears, read: 60 mg noribogaine single oral dose.
The mark [16] stands for this setting: 60 mg noribogaine single oral dose, plasma.

“And” between values parts separate entries of the source, which are not always exact repeats. Identical values can stand only once. Like-named read-outs stand apart in the source and are kept apart here. Marks after values point to notes of the source that are not given here.

T2 sequence (P35372 whole entry): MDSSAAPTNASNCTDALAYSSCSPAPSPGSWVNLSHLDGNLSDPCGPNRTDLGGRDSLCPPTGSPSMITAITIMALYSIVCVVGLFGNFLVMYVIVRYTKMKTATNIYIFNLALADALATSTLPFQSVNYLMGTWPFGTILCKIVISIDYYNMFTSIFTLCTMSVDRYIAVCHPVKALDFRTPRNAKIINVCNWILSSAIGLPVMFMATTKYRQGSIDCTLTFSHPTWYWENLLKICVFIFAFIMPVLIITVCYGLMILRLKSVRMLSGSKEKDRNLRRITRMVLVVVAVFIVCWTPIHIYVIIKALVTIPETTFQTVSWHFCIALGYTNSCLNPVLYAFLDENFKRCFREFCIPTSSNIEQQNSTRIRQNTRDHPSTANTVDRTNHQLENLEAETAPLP
T1 sequence (P35372 whole entry): as above
T3 sequence (P41145 whole entry): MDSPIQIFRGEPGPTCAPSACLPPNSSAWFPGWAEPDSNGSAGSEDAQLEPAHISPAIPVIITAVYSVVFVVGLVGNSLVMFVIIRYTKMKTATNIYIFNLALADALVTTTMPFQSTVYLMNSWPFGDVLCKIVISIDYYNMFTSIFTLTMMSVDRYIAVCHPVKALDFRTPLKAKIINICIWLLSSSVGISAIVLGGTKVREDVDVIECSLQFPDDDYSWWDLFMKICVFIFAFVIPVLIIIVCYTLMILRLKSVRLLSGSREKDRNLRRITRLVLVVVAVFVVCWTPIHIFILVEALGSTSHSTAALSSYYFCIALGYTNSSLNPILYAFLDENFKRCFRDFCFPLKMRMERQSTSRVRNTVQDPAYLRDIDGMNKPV
T4 sequence (P41145 whole entry): as above
Chain of calf OPRM (P79350 whole entry): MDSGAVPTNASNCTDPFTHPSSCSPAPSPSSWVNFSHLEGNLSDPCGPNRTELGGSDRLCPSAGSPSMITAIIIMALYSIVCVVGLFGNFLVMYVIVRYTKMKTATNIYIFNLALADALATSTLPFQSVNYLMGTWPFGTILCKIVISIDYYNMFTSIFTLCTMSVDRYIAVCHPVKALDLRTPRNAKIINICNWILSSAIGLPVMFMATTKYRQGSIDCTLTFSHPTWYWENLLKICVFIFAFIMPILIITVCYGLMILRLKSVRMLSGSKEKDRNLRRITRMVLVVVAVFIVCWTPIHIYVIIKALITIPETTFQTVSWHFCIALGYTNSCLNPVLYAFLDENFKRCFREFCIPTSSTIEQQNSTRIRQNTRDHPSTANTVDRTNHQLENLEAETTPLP
Chain of calf OPRK (Q2KIP6 whole entry): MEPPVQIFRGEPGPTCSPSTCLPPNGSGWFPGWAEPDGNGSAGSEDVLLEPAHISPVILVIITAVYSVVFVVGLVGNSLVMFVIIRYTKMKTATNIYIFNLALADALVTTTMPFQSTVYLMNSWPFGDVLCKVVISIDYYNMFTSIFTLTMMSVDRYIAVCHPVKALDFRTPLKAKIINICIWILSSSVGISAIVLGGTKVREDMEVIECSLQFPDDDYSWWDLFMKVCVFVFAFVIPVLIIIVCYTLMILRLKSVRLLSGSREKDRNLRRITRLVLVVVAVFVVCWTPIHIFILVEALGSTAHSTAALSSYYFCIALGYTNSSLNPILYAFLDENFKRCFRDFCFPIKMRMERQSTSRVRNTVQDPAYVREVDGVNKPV
Chain of OPRD: opioid receptor delta (F1N083 1-372): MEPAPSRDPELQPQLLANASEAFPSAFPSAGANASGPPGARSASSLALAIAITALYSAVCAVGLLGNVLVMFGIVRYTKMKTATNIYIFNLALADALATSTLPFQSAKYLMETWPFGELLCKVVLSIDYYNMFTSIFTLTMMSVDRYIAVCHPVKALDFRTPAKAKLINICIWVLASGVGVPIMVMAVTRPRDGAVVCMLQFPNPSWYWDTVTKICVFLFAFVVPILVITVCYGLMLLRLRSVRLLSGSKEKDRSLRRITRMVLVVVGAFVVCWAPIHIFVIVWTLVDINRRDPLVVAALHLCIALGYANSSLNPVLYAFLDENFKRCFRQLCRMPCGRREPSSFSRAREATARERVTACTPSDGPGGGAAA

Take `NC(N)=Nc1ccc2c3c([nH]c2c1)[C@@H]1Oc2c(O)ccc4c2[C@@]12CCN(CC1CC1)[C@H](C4)[C@]2(O)C3` [6′GNTI]: in [1], the Ki is 82 nM and the pKi was 7.1. In series [2] (ΔpKi = pKi(OPRK)-pKi(OPRM)), the “Specificity ΔpKi” value was determined as 1.84. At human OPRM [3] (OPRM, activation, literature), the concentration giving a half-maximal response (EC50) is more than 1000 nM and the Efficacy is recorded as 0~ %.

Take `COCC[C@H]1CC2CN3CCc4c([nH]c5ccccc45)[C@](C(=O)OC)(C2)[C@H]13` [18-MC, 18-methoxycoronaridine]: the “reported selectivity at OPRM” value in [1] is reported as 5 ×. Also, the pKi in series [4] (setting [12]) is 5.7*; on calf OPRK, 5.3*; on calf OPRM, 6.0*; in [7], 5.6*. For the same molecule, the Ki in series [4] (setting [12]) is 1800 nM; in series [4] (human OPRK, [3H]-U69,593), 1840 ± 120 nM; at calf OPRK, 5100 nM; on calf OPRM (read-out: Ki) it was 1100 nM; in series [7] (read-out: Ki) it was 2260 nM and 2360 nM. The “affinity at human OPRK versus OPRM” value in series [2] (this work) is “equi-affine”. Moreover, the “Efficacy (Emax)” value on OPRK [5] and at human OPRM [6] was less than 5% each time. This molecule showed a pEC50 at OPRK [5] of 4.8. In addition, on OPRK [5], the “pEC50, (Ke): pKe” value came to 5.3. For the same molecule, at OPRK [5], the “stimulation of [35S]GTPγS binding to OPRK” value is listed as “failed to stimulate”. Moreover, the EC50 on OPRK [5] (read-out: EC50) was approximately 16000 nM. Besides, the “stimulation of the OPRM G-protein pathway” value at human OPRM [6] is on record as “failed to stimulate”.

Consider `C[C@@H](NC(=O)[C@@H](N)Cc1ccc(O)cc1)C(=O)NCC(=O)N(C)[C@@H](Cc1ccccc1)C(=O)NCCO` [DAMGO, [D-Ala2, NMe-Phe4, Gly-ol5]-enkephalin], for which the “Specificity ΔpKi” value in series [2] (ΔpKi = pKi(OPRK)-pKi(OPRM)) is less than −3.

Turning to `CC[C@H]1CC2C[C@H]3c4[nH]c5ccc(OC)cc5c4CCN(C2)C13` [Ibogaine, reference compound], the inhibitory constant (Ki) at OPRD in [8] is reported as “N.Q.)”. In addition, the Ki on calf OPRM was 11000 nM; in series [7] it was 6920 ± 830 nM. For the same molecule, the pKi at calf OPRM is 5.0*. For the same molecule, the “stimulation of the OPRM G-protein pathway” value at human OPRM [6] is listed as “failed to stimulate”. For the same molecule, the Emax at human OPRM [6] (read-out: Efficacy (Emax)) is -2.9%.

As to `C=C1CC[C@@]2(O)[C@H]3Cc4ccc(O)c5c4[C@@]2(CCN3CC2CC2)[C@H]1O5` [Nalmefene, reference compound], the “Specificity ΔpKi” value in series [2] (ΔpKi = pKi(OPRK)-pKi(OPRM)) is listed as 1.1.

Consider `Oc1ccc2c3c1O[C@H]1c4[nH]c5c(c4C[C@@]4(O)[C@@H](C2)N(CC2CC2)CC[C@]314)C[C@@]1(O)[C@H]2Cc3ccc(O)c4c3[C@@]1(CCN2CC1CC1)[C@H]5O4` [NorBNI, nor-binaltorphimine, reference compound], for which, in series [2] (ΔpKi = pKi(OPRK)-pKi(OPRM)), the “Specificity ΔpKi” value amounted to 2.0. Also, the e-coupling on OPRK [9] is on record as 0.27.

For the molecule `CC[C@H]1C[C@@H]2C[C@H]3c4[nH]c5ccc(OC6OC(C(=O)O)C(O)C(O)C6O)cc5c4CCN(C2)[C@@H]13` (stereo partly shown) [Noribogaine glucuronide], in series [10] (setting [13]), the Cmax is recorded as 1.8 (0.6) ng/ml and the Tmax was 3.0 (0.6) hr. In series [10] (setting [14]), the AUC0-216 was 25.7 (9.1) ng · hr/ml, the “AUC0-∞” value was 25.8 (9.3) ng · hr/ml and the t1/2 is 20.6 (4.9) hr. Moreover, in series [10] (setting [15]), the Cmax is given as 4.1 (1.2) ng/ml and the Tmax was 3.8 (1.2) hr. In series [10] (setting [16]), the AUC0-216 is reported as 65.0 (21.5) ng · hr/ml, the “AUC0-∞” value is reported as 67.1 (21.9) ng · hr/ml and the t1/2 is 23.1 (3.0) hr. Besides, the “time of peak concentrations after oral noribogaine dosing” value in series [10] (across dose groups, healthy volunteers) was 3 to 4 h. In series [10] (across dose groups, healthy volunteers, plasma), this molecule had a Mean half-life of 21 to 23 h. In addition, the “proportion of noribogaine glucuronide Cmax and AUC relative to noribogaine” value in series [10] (both dose groups (30 mg, 60 mg)) is listed as 3-4%. Also, in series [10] (plasma, 30 mg and 60 mg noribogaine dose groups), the “time by which detected in all subjects” value is not above 0.75 h.

With [Met]-Enkephalin [reference compound], the values for the Efficacy on human OPRM [11] and on human OPRM [3] were 100% and approximately 95%, respectively. In addition, the e-coupling is 1.94 on human OPRM [11] and 1.8 on human OPRM [6]. Besides, in series [2], the “Specificity ΔpKi” value was less than −3.
